Measured values reported in patent US20020172935A1, “Methods of screening for compounds that modulate blood vessel formation from circulating endothelial cell precursors” (priority 2000, published 2002).

System: murine allantois
Experiment: Allantois explant culture: de novo vascular development, immunolabeling and confocal analysis
Format: cell-based, mouse
Procedure: Allantoides of 7.5dpc embryos were excised, washed in EPBS (4° C.) and then pipetted into Nunc 4 chambered culture slides (Fisher Scientific Co., Suwanee, Ga.) containing 0.4 ml of DMEM, 10% Fetal Bovine Serum, and 1% Penicillin Streptomycin. Explants were cultured at 37° C. in a 5% CO2 incubator for 12-20 hours and then fixed and permeabilized as described above. The explants were blocked in 3% BSA/PBSA 12-18 hrs, exposed to PECAM antibodies (1.5 hours, 26° C.), washed 3×40 minutes in PBSA, incubated in appropriate secondary antibodies (1.5 hours, 26° C.), washed in PBSA 3×30 minutes, and mounted as described above.
Embryos were analyzed using a Bio-Rad MRC 1024 Laser Scanning Confocal Microscope (Bio-Rad Microscopy Division, Cambridge, Mass.). Optical sectioning along the dorsoventral axis (Z-axis) was performed and the images collapsed into a single focal plane using manufacturer's software. Differential Interference Contrast (DIC) images were generated using a research grade Leitz™ photomicroscope equipped with a Photometrics™ (Tucson, Ariz.) Quantix CCD camera. Images were processed using NIH Image 1.62 software (NIH, Bethesda, Md.) and Adobe Photoshop 5.0 (Adobe Systems, Inc., San Jose, Calif.). […]

In the case of VEGF, the “vascular pattern (PECAM immunolabeling)” value (7.0 dpc allantois cultured 24 hours with VEGF 2 μg/ml (FIG. 3c)) was “overall sinusoidal vascular pattern” and the vascular phenotype (allantois cultures, recombinant VEGF 2 μg/ml, 24 hr) was “hyperfused vascular phenotype”.
